Measurements reported in patent US20230148599A1, “FUNGICIDAL MIXTURES CONTAINING PYRAZOLE DERIVATIVES” (FMC Corporation, priority 2020, published 2023).

What was measured:
Assay type in all cases: in vivo
[1] = test system: Puccinia recondita f. sp. tritici; test: Test B1 (comparative): wheat leaf rust, wheat seedlings; conditions: 100 = 100% disease control
From the text: (§1) General protocol for preparing test suspensions for Tests A1-F1: the test compounds were first dissolved in acetone in an amount equal to 3% of the final volume and then suspended at the desired concentration (in ppm) in acetone and purified water (50/50 mix by volume) containing 250 ppm of the surfactant PEG400 (polyhydric alcohol esters). The resulting test suspensions were then used in Tests A1-F1.
The test solution was sprayed to the point of run-off on wheat seedlings. The following day the seedlings were inoculated with a spore suspension of Puccinia recondita f. sp. tritici (the causal agent of wheat leaf rust) and incubated in a saturated atmosphere at 20° C. for 24 h, and then moved to a growth chamber at 20° C. for 7 days, after which time disease ratings were made.
(§2) A rating of 100 indicates 100% disease control and a rating of 0 indicates no disease control (relative to the controls).

Alternaria solani [2] = test: Test F1 (comparative): tomato early blight, tomato seedlings; conditions: 100 = 100% disease control
From the text: as §1
(§3) The test suspension was sprayed to the point of run-off on tomato seedlings. The following day the seedlings were inoculated with a spore suspension of Alternaria solani (the causal agent of tomato early blight) and incubated in a saturated atmosphere at 27° C. for 48 h, and then moved to a growth chamber at 20° C. for 3 days, after which time visual disease ratings were made.
as §2

[3] = test system: Blumeria graminis f. sp. tritici; test: Test C1 (comparative): wheat powdery mildew, wheat seedlings; conditions: 100 = 100% disease control
From the text: as §1
The test suspension was sprayed to the point of run-off on wheat seedlings. The following day the seedlings were inoculated with a spore dust of Blumeria graminis f. sp. tritici, (also known as Erysiphe graminis f. sp. tritici, the causal agent of wheat powdery mildew) and incubated in a growth chamber at 20° C. for 8 days, after which time visual disease ratings were made.
as §2

Botrytis cinerea [4] = test: Test E1 (comparative): tomato Botrytis, tomato seedlings; conditions: 100 = 100% disease control
From the text: as §1
as §3, with “Botrytis cinerea” for “Alternaria solani”, “Botrytis)” for “early blight)”, “20°” for “27°”, “24°” for “20°”
as §2

Septoria tritici [5] = test: Test A1 (comparative): wheat leaf blotch, wheat seedlings; conditions: 100 = 100% disease control, 0 = no control
From the text: as §1
The test solution was sprayed to the point of run-off on wheat seedlings. The following day the seedlings were inoculated with a spore suspension of Septoria tritici (the causal agent of wheat leaf blotch) and incubated in a saturated atmosphere at 24° C. for 48 h, and then moved to a growth chamber at 20° C. for 17 days, after which time disease ratings were made.
as §2

Septoria tritici [6] = test: Test A: wheat leaf blotch, preventive spray on wheat seedlings; conditions: Zymoseptoria tritici, 456 h, 100 = 100% disease control, 0 = no control, read-out: Test A disease control rating
In short: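 Wheat seedlings sprayed to run-off with compound suspended in acetone/water with 250 ppm PEG400 surfactant, inoculated next day with Septoria tritici spores. Held 48 h saturated at 24 °C, then 17 days at 20 °C; disease rated 0–100% control relative to controls.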

Botrytis cinerea [7] = test: Test E: tomato Botrytis, preventive spray on tomato seedlings; conditions: 120 h, 100 = 100% disease control, 0 = no control, read-out: Test E disease control rating
In short: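 Compound suspended in 50/50 acetone/water with 250 ppm PEG400 surfactant and sprayed to run-off on tomato seedlings; Botrytis cinerea spores applied the next day. Incubation 48 h at 20° C in saturated atmosphere, then 3 days at 24° C. Visual rating 0–100% disease control relative to controls.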

Alternaria solani [8] = test: Test F: tomato early blight, preventive spray on tomato seedlings; conditions: 120 h, 100 = 100% disease control, 0 = no control, read-out: Test F disease control rating
In short: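 Tomato seedlings were sprayed to run-off with compound suspended in acetone/water (50/50) with 250 ppm PEG400 and inoculated with Alternaria solani spores the next day. Plants were held 48 h at 27 °C in saturated humidity, then 3 days at 20 °C. Disease control was rated visually from 0 to 100 against untreated controls.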

[9] = test system: Puccinia recondita f. sp. tritici; test: Test B: wheat leaf rust, preventive spray on wheat seedlings; conditions: 192 h, 100 = 100% disease control, 0 = no control, read-out: Test B disease control rating
In short: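 Wheat seedlings were sprayed to run-off with compound suspended at ppm concentrations in acetone/water containing 250 ppm PEG400. The next day they were inoculated with Puccinia recondita f. sp. tritici spores, held saturated at 20 °C for 24 h, then kept 7 days at 20 °C. Disease control was rated 0–100% relative to untreated controls.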

Phakopsora pachyrhizi = test: Test D: Asian soybean rust, preventive spray on soybean seedlings; conditions: 216 h, 100 = 100% disease control, 0 = no control, read-out: Test D disease control rating
In short: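 Compounds in acetone/water (50/50) with 250 ppm PEG400, dosed in ppm, sprayed to run-off on soybean seedlings; inoculated with P. pachyrhizi spores next day. Held 24 h at 22 °C in saturated air, then 8 days at 22 °C; visual rating of disease control, 0–100, relative to untreated controls.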

## Cc1nn(C)c(Nc2ccc([N+](=O)[O-])cc2F)c1-c1ccc(F)cc1Cl [Cmpd. from WO 2010/101973, reference compound]
[1]; Rate 10 ppm
  Test B1 disease control rating: 0%
[1]; Rate 50 ppm
  Test B1 disease control rating: 0%
Alternaria solani [2]; Rate 10 ppm
  Test F1 disease control rating: 0%
Alternaria solani [2]; Rate 50 ppm
  Test F1 disease control rating: 0%
[3]; Rate 10 ppm
  Test C1 disease control rating: 0%
[3]; Rate 50 ppm
  Test C1 disease control rating: 0%
Botrytis cinerea [4]; Rate 10 ppm
  Test E1 disease control rating: 0%
Botrytis cinerea [4]; Rate 50 ppm
  Test E1 disease control rating: 40%
Septoria tritici [5]; Rate 10 ppm
  Test A1 disease control rating: 45%
Septoria tritici [5]; Rate 50 ppm
  Test A1 disease control rating: 91%

## Cc1nn(C)c(Nc2c(F)cccc2[N+](=O)[O-])c1-c1ccc(F)cc1Cl [Compound 112, 4-(2-chloro-4-fluorophenyl)-N-(2-fluoro-6-nitrophenyl)-1,3-dimethyl-1H-pyrazol-5-amine]
[1]; Rate 10 ppm
  Test B1 disease control rating: 86%
[1]; Rate 50 ppm
  Test B1 disease control rating: 100%
Alternaria solani [2]; Rate 10 ppm
  Test F1 disease control rating: 99%
[3]; Rate 10 ppm
  Test C1 disease control rating: 97%
[3]; Rate 50 ppm
  Test C1 disease control rating: 98%
Septoria tritici [6]; 10 ppm
  pest or weed control at 10 ppm: 72%
Septoria tritici [6]; 50 ppm
  pest or weed control at 50 ppm: 88%
Botrytis cinerea [7]; 10 ppm
  pest or weed control at 10 ppm: 100%
Botrytis cinerea [7]; 50 ppm
  pest or weed control at 50 ppm: 100%
Alternaria solani [8]; 10 ppm
  pest or weed control at 10 ppm: 98%
Alternaria solani [8]; 50 ppm
  pest or weed control at 50 ppm: 100%
[9]; 10 ppm
  pest or weed control at 10 ppm: 100%
[9]; 50 ppm
  pest or weed control at 50 ppm: 100%
Phakopsora pachyrhizi; 10 ppm
  pest or weed control at 10 ppm: 52%
Phakopsora pachyrhizi; 50 ppm
  pest or weed control at 50 ppm: 99%
Botrytis cinerea [4]; Rate 10 ppm
  Test E1 disease control rating: 99%
Botrytis cinerea [4]; Rate 50 ppm
  Test E1 disease control rating: 99%
Septoria tritici [5]; Rate 10 ppm
  Test A1 disease control rating: 81%
Septoria tritici [5]; Rate 50 ppm
  Test A1 disease control rating: 100%
